The text below walks through data of US20110269811A1, “INHIBITORS OF SEMICARBAZIDE-SENSITIVE AMINE OXIDASE (SSAO) AND VAP-1 MEDIATED ADHESION USEFUL FOR TREATMENT AND PREVENTION OF DISEASES” (priority 2006, published 2011).

By ED50 is commonly meant the dose that gives a 50% effect, or the effect in half of the subjects.

The subject of series [1] is antibody-mediated collagen-induced arthritis. As to the kind of experiment: Anti-collagen antibody-induced arthritis in mice. The class given is in vivo. The note with it: 30 mg/kg, i.p., once daily, days 1-10; FIG. 4. The source says: Collagen-induced arthritis (CIA) in mice is widely used as an experimental model for rheumatoid arthritis (RA) in humans. CIA is mediated by autoantibodies to a particular region of type II collagen and complement. The murine CIA model used in this study is called antibody-mediated CIA, and can be induced by i.v. injection of a combination of different anti-type II collagen monoclonal antibodies (Terato K., et al. (1995). Autoimmunity. 22:137). Several compounds have been used to successfully block inflammation in this model, including anti-α1β1 and […] integrins monoclonal antibodies (de Fougerolles A. R. (2000) J. Clin. Invest. 105: 721).
In this example, arthrogen-collagen-induced arthritis antibody kits were purchased from Chemicon International (Temecula, Calif.) and arthritis was induced using the manufacturer's protocol. Mice were injected i.v. with a cocktail of 4 anti-collagen Type II monoclonal antibodies (1.5 mg each) on day 0, followed by i.p. injection of 25 μg lipopolysaccharide (LPS) on day 2. […] Severity of arthritis in each limb was scored for 3-4 weeks as follows: 0=normal; 1=mild redness, slight swelling of ankle or wrist; 2=moderate redness and swelling of ankle or wrist; 3=severe redness and swelling of some digits, ankle and paw; 4=maximally inflamed limb, with a maximum score of 16 per animal. […]

For series [2], the system named is collagen-induced arthritis. Description: Collagen-induced arthritis by direct injection of Type II collagen. The class given is in vivo, B10RIII mice. The note with it: FIG. 15. As to the method: Collagen-induced arthritis can also be induced by direct injection of collagen. Groups of 15 male B10RIII mice were injected intradermally with Type II collagen in Complete Freund Adjuvant (CFA) on days 0 and 15. Mice were dosed p.o. starting from day 0 to day 28 with phosphate buffered saline (PBS), 5 mg/kg compound I-1-Z, 30 mg/kg compound I-1-Z or 0.2 mg/kg dexamethasone. […] Clinical scores were determined daily for each paw based on a scale between 0-5 based on joint erythema and swelling. Statistical analysis was by Student's t-test versus the PBS-treated disease control group.

Another series deals with T1, rat lung SSAO (Rattus norvegicus, UniProt O08590).
T1 construct: rat lung or human umbilical cord homogenates were prepared by chopping the freshly removed tissue; from tissue; host or cells: rat lung homogenate (1000 g supernatant)
Description: ED50 for rat lung SSAO after oral administration. The class given is in vivo, Sprague Dawley rats. The conditions noted are these: lungs excised 1, 3, 6 or 24 h later, FIG. 11, read-out: ED50 for inhibition of rat lung SSAO activity. The method, then:
Groups of five Sprague Dawley rats were orally administered the indicated doses of compound I-1-Z. At 1, 3, 6 or 24 h later, the animals were sacrificed, lungs excised and SSAO activity in lung homogenates determined. Results are presented as percent inhibition of SSAO activity relative to animals that were administered PBS.

For another series, the target named is T2, D5 (h) (Homo sapiens, UniProt P21918).
T2 construct: expressed in transfected cells; host or cells: GH4 cells
As to the kind of experiment: Receptor binding screen, [^3H]SCH 23390. The conditions noted are these: 10 uM Concentration of Compound I-1-Z; read-out: Mean Value, percent inhibition of control specific binding: D5 (h).

The next series deals with T3, GAL1 (h) (Homo sapiens, UniProt P47211).
T3 construct: expressed in transfected cells; host or cells: HEK-293 cells
Description: Receptor binding screen, [^125I]galanin. The conditions noted are these: 10 uM Concentration of Compound I-1-Z; read-out: Mean Value, percent inhibition of control specific binding: GAL1 (h).

The next series relates to PDGF. Description: Receptor binding screen, [^125I]PDGF BB, Balb/c 3T3 cells. The conditions noted are these: 10 uM Concentration of Compound I-1-Z.
The target in a further series is T4, NK3 (h) (Homo sapiens, UniProt P29371).
T4 construct: expressed in transfected cells; host or cells: CHO cells
Description: Receptor binding screen, [^3H]SR 142801. The conditions noted are these: 10 uM Concentration of Compound I-1-Z; read-out: Mean Value, percent inhibition of control specific binding: NK3 (h).

Another series concerns the target T5, Y1 (h) (Homo sapiens, UniProt P25929).
T5 construct: SK-N-MC cells; endogenous in cells; host or cells: SK-N-MC cells
As to the kind of experiment: Receptor binding screen, [^125I]peptide YY, SK-N-MC cells. The note with it: 10 uM Concentration of Compound I-1-Z; read-out: Mean Value, percent inhibition of control specific binding: Y1 (h).

The next series has as its target T6, NT1 (h) (NTS1) (Homo sapiens, UniProt P30989).
T6 construct: expressed in transfected cells; host or cells: CHO cells
As to the kind of experiment: Receptor binding screen, [^125I]Tyr^3-neurotensin. The note with it: 10 uM Concentration of Compound I-1-Z; read-out: Mean Value, percent inhibition of control specific binding: NT1 (h) (NTS1).

The target in the next series is T7, TXA2/PGH2 (h) (TP) (Homo sapiens, UniProt P21731).
T7 construct: human platelets; endogenous in cells; host or cells: human platelets
As to the kind of experiment: Receptor binding screen, [^3H]SQ 29548, human platelets. The conditions noted are these: 10 uM Concentration of Compound I-1-Z; read-out: Mean Value, percent inhibition of control specific binding: TXA2/PGH2 (h) (TP).

For a further series, the target named is T8, 5-HT1B (Rattus norvegicus, UniProt P28564).
T8 construct: rat cerebral cortex; from tissue; host or cells: rat cerebral cortex
As to the kind of experiment: Receptor binding screen, [^125I]CYP. The conditions noted are these: probe [125I]CYP (radioligand), 10 uM Concentration of Compound I-1-Z, read-out: Mean Value, percent inhibition of control specific binding: 5-HT1B.

For another series, the target named is T9, 5-HT7 (h) (Homo sapiens, UniProt P34969).
T9 construct: expressed in transfected cells; host or cells: CHO cells
Description: Receptor binding screen, [^3H]LSD. The note with it: 10 uM Concentration of Compound I-1-Z; read-out: Mean Value, percent inhibition of control specific binding: 5-HT7 (h).

The target in the next series is T10, 5-HT transporter (h) (Homo sapiens, UniProt P31645).
T10 construct: expressed in transfected cells; host or cells: CHO cells
As to the kind of experiment: Receptor binding screen, [^3H]imipramine. The conditions noted are these: 10 uM Concentration of Compound I-1-Z; read-out: Mean Value, percent inhibition of control specific binding: 5-HT transporter (h).

T10 sequence (P31645 whole entry): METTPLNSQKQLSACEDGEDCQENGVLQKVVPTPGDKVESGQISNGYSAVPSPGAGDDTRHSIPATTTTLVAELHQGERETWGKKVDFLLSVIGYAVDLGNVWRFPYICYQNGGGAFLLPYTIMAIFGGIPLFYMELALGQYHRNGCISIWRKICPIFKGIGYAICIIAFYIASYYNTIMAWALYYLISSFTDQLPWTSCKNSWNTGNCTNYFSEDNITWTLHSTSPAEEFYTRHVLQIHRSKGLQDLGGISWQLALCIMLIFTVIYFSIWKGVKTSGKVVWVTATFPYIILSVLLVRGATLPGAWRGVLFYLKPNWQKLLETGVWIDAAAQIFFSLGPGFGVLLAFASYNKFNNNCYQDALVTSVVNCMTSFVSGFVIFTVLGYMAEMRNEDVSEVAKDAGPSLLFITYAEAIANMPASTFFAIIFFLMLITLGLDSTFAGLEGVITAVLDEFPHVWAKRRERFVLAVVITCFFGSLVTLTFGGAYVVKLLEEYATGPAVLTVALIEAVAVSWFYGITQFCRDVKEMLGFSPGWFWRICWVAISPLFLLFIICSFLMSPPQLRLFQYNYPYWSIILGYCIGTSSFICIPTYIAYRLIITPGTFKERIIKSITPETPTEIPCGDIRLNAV
T1 sequence (O08590 whole entry): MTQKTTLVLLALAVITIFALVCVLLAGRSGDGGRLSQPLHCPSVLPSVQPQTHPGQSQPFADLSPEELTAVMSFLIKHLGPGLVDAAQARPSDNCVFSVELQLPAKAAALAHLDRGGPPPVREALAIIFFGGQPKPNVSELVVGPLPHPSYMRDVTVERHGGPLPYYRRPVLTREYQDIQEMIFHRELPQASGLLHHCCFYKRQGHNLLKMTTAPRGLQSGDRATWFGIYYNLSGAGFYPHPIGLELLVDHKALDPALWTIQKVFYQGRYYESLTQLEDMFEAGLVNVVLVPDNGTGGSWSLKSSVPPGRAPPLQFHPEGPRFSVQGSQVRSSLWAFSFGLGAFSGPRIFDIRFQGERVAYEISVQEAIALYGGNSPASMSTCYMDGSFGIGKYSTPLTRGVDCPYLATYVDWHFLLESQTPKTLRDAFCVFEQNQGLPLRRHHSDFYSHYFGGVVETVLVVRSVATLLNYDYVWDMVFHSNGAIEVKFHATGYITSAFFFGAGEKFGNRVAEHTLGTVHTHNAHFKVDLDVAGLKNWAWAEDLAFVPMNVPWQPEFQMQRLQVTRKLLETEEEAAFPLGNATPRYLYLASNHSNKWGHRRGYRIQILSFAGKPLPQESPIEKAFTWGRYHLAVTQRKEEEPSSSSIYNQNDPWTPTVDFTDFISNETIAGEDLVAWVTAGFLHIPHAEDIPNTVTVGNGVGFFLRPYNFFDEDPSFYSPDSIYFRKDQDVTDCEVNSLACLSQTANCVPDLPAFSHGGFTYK
T5 sequence (P25929 whole entry): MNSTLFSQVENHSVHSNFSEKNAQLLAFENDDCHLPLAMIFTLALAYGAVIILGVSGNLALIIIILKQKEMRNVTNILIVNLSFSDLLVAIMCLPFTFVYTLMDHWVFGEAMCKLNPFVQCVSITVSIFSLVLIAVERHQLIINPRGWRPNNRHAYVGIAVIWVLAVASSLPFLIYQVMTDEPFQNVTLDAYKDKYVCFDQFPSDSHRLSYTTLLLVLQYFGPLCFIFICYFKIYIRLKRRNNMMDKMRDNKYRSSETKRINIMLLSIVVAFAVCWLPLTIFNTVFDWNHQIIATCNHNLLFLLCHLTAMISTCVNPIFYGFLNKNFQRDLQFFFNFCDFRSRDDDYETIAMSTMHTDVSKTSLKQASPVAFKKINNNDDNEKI
T4 sequence (P29371 whole entry): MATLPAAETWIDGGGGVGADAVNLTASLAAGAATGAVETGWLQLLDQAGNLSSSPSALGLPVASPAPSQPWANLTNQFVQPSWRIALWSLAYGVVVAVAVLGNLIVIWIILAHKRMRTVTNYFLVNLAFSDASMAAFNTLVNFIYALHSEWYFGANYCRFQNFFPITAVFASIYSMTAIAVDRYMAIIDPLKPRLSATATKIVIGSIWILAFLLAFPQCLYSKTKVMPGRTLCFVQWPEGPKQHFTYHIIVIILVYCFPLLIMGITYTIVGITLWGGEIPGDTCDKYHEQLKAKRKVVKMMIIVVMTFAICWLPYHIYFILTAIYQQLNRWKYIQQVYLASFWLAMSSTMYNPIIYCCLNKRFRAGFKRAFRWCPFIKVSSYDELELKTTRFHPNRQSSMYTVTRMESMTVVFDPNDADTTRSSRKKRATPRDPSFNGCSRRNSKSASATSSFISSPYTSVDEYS
T2 sequence (P21918 whole entry): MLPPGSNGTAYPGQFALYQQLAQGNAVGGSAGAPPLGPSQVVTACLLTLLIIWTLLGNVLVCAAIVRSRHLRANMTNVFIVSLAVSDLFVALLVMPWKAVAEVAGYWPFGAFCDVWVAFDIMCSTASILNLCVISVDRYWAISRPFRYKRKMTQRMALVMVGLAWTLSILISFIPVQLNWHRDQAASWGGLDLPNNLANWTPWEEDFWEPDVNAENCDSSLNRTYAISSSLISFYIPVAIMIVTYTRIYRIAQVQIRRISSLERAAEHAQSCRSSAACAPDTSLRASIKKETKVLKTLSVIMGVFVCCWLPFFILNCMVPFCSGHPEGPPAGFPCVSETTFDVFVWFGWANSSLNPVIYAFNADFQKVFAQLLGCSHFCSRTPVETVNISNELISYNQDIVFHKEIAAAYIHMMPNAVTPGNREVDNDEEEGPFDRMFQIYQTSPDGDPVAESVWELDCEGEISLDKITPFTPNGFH
T9 sequence (P34969 whole entry): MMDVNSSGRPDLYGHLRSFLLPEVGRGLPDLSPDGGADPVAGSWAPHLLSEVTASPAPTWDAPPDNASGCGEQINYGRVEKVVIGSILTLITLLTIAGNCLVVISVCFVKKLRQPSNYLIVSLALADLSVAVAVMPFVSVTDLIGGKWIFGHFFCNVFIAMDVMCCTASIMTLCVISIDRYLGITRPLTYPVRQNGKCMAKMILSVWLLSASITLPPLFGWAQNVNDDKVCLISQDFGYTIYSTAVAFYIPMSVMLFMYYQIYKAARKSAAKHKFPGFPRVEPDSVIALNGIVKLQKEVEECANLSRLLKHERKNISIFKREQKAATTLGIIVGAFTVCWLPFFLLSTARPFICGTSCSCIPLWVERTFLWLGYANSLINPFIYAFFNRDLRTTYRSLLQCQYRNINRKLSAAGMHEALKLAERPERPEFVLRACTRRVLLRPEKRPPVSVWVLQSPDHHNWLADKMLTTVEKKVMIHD
T7 sequence (P21731 whole entry): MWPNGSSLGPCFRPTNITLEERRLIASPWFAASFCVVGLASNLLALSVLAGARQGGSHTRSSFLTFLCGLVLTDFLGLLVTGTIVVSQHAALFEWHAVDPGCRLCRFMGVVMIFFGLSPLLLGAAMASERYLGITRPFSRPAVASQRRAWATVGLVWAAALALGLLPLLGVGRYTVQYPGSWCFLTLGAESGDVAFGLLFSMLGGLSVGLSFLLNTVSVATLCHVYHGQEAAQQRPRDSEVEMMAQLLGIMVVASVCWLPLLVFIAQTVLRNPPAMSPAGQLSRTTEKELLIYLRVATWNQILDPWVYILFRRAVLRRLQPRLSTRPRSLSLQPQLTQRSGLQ
T8 sequence (P28564 whole entry): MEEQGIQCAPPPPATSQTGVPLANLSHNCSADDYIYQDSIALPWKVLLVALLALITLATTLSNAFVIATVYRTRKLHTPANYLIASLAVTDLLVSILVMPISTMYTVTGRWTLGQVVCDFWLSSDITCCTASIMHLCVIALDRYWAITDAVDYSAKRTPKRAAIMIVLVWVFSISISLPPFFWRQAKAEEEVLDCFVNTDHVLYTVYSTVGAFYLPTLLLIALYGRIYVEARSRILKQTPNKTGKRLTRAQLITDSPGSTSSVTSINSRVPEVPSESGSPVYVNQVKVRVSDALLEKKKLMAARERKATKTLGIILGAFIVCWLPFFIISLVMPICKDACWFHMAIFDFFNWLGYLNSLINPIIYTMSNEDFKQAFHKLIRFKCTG
T3 sequence (P47211 whole entry): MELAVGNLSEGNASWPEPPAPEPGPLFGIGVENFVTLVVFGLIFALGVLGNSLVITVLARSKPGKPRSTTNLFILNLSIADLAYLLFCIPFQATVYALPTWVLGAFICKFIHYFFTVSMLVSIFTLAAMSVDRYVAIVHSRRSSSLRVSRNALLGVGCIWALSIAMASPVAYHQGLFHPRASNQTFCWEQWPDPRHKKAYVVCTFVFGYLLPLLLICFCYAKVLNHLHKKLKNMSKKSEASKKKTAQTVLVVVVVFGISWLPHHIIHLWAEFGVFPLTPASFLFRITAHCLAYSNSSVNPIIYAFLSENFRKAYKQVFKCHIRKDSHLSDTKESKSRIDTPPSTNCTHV
T6 sequence (P30989 whole entry): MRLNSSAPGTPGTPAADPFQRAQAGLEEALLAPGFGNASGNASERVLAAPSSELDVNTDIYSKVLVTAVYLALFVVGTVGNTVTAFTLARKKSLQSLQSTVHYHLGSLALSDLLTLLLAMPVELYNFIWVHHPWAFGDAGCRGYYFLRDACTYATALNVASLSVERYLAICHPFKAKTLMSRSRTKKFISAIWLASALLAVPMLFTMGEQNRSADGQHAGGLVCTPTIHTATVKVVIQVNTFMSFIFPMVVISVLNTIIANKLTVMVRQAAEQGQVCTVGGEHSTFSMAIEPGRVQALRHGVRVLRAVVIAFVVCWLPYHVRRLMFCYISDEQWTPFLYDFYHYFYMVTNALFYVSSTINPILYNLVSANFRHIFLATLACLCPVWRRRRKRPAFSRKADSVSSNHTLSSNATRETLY

For the molecule `COc1ccc(C/C(=C/F)CN)cc1.Cl` [Compound I-1-Z, (Z)-3-Fluoro-2-(4-methoxybenzyl)-allylamine hydrochloride], the “final arthritis score and paw swelling” value in series [1] is reported as “clearly reduced”. The “incidence of arthritis and clinical scores as compared to PBS” value in [2] (5 mg/kg p.o. day 0 to day 28) is “reduced both the incidence of arthritis and the clinical scores”. Besides, the clinical efficacy result in series [2] (30 mg/kg p.o. day 0 to day 28) was “no clinical efficacy was observed”. The 50% effective dose (ED50) on rat lung SSAO fell in the range of 0.1 to 1 mg/kg. Further, the inhibition at 10 µM at D5 (h) was -10%; at GAL1 (h), 0%; at NK3 (h), 1%; on Y1 (h), -2%; at NT1 (h) (NTS1), -1%; on TXA2/PGH2 (h) (TP), 4%. Also, the inhibition at 10 µM at 5-HT1B was 16%; at 5-HT7 (h) it was 13%; at 5-HT transporter (h), 47%. The “Mean Value, percent inhibition of control specific binding: PDGF” value in the series with PDGF is recorded as −14%.
